Measured values from PMC12250129, “Exploring the Therapeutic Potential of ^177Lu-PSMA-617 in a Mouse Model of Prostate Cancer Bone Metastases” (International Journal of Molecular Sciences, 2025).

Tests used:
[1] = tested on: bone metastases of LNCaP-luc prostate cancer; test: Biodistribution in mice with bone metastases of LNCaP-luc prostate cancer (gamma counter); assay type: in vivo, mouse
Description: An in vivo imaging system was used for bioluminescence imaging (BLI) to visualize ASID mice with bone metastases of LNCaP-luc prostate cancer before the administration of ^177Lu-PSMA-617 (Figure 4A). Subsequently, ^177Lu-PSMA-617 (~37 MBq of Lu-177) was administered intravenously to mice with bone metastases, and NanoSPECT/CT imaging was performed at 4, 24, and 48 h post-administration (Figure 4B). Additionally, the mice were sacrificed, and their organs and tissues were extracted for quantitative analysis using a gamma counter at 1, 4, 24, and 48 h after injection (Figure 4C).
LNCaP-luc cells were harvested from culture and resuspended to 2 × 10^7 cells/mL in PBS. The cells were combined with an equal volume of Matrigel (BD Biosciences, Bedford, MA, USA) such that 5 × 10^5 cells were prepared for injection into the right tibia of anesthetized (inhaled anesthetic of 1–2% isoflurane) ASID mice. Intratibial injections were performed using a 29-gauge, 0.5-inch needle inserted through the tibial plateau of the flexed knee as described previously. The tumor was imaged, detected, and measured using a Bruker Small Animal Optical Imaging System (In Vivo Xtreme; Billerica, MA, USA). Mice were anesthetized with a mixture of oxygen and isoflurane, then intraperitoneally injected with 100 μL of D-luciferin (Xenogen; 30 mg/mL in PBS).
Mice received an intravenous injection of ^177Lu-PSMA-617 (equivalent to 37 MBq of ^177Lu) at 45 days after tumor implantation. The NanoSPECT/CT (Mediso Medical Imaging Systems, Arlington, VA, USA) was used to image in vivo. After the administration of ^177Lu-PSMA-617, mice inhaled an anesthetic containing 1–2% isoflurane during imaging acquisition. SPECT and X-ray CT images were obtained at 1, 4, 24, and 48 h after injection. NanoSPECT imaging was acquired using nine multipinhole gamma detectors and high-resolution collimators. The energy window was set to […] ± 10%; the image size was set to 256 × 256, and the field of view of 60 mm × 100 mm was used. Mice received an intravenous injection of ^177Lu-PSMA-617 (equivalent to 37 MBq of ^177Lu) at 45 days after tumor implantation. The distribution of ^177Lu-PSMA-617 in the mice bearing tumors was evaluated by a gamma counter (PerkinElmer, Waltham, MA, USA). The mice were sacrificed by carbon dioxide euthanasia at 1, 4, 24, and 48 h after administration. The blood, tumor, and normal organ/tissue were collected, and the uptake of radioactivity was measured by a gamma counter. The distribution data obtained using radioactivity count methods are plotted as %ID/g.

[2] = Radiochemical stability in human serum (iTLC); assay type: in vitro ADME
Description: A precursor amount of 50 nmol was labeled with Lutetium-177, achieving a radiochemical yield of over 99% and a molar activity of 25.5 GBq/μmol within 15 min at 95 °C. The radiochemical purity of ^177Lu-PSMA-617 (Rt = 7.47 min) exceeded 98%, as determined by radio-HPLC and iTLC analyses (Figure 1). To assess radiolytic stability, ^177Lu-PSMA-617 was incubated in human serum at 4, 25, and 37 °C for 1, 24, 48, and 72 h. […] However, after 72 h, less than 5% and 4% of free ^177Lu was detected at 4 °C and 25 °C, respectively. […] These findings are consistent with other studies. […] The ability to maintain radiolabeling over an extended period reinforces its viability for targeted radiopharmaceutical therapy and molecular imaging in oncology.
Radiolabeling was conducted as previously described. A total of 1 GBq of non-carrier added lutetium-177 (Isotopia Molecular Imaging, Petach Tikva, Israel) was mixed with 100 μL of a sodium acetate solution (0.4 M, pH 5.5), 1.25 μL of an ascorbic acid solution (20% w/w), and 5 μL of a PSMA-617 solution (10 mM, Ontores Biotechnology Co., Ltd., Hangzhou, China). The mixture solution was subjected to heating at a temperature of 95 °C while being placed on a shaker for 15 min. The labeling efficiency was measured using instant thin-layer chromatography (iTLC) on the glass microfiber chromatography paper impregnated with a silica gel (Agilent Technologies, Santa Clara, CA, USA), where 100 mM EDTA in 100 mM ammonium acetate acts as a mobile phase as described previously. The iTLC sheets were measured using a radioactive scanner (AR-2000 radio-TLC Imaging Scanner, Bioscan, Evreux, France). The labeling rate of >90% was acceptable as performed in the in vitro and in vivo studies. Radiochemical purity was also analyzed by high-performance liquid chromatography (HPLC) with a UV detector (220 nm) and a radio detector using a Zorbax SB-C18 column (Agilent Technologies, Santa Clara, CA, USA). The flow rate was 0.8 mL/min with the gradient mobile phase going from the 80% A buffer (0.1% TFA in water) and 20% B buffer (0.1% TFA in acetonitrile) to the 40% B buffer within 20 min. A sterile 0.9% sodium chloride solution was added before injections in mice. The radiochemical stability of ^177Lu-PSMA-617 in human serum up to 96 h at 4, 25, and 37 °C was tested by iTLC.

[3] = tested on: PSMA-negative PC-3 cells; test: Cell surface binding and internalization, PC-3 cells; assay type: cell-based, human
Description: Cell surface binding and internalization experiments were performed with ^177Lu-PSMA-617 using PSMA-positive LNCaP cells and PSMA-negative PC-3 cells in order to determine if the uptake of ^177Lu-PSMA-617 was PSMA-specific. For this purpose, cells were seeded in 24-well plates (10^5 cells in 1 mL of the RPMI medium/well), allowing adhesion and growth overnight at 37 °C. After the removal of the supernatant, cells were washed once with PBS prior to the addition of the RPMI medium without supplements, followed by the addition of the radiolabeled ^177Lu-PSMA-617 (in MBq/nmol) to each well. The well plates were incubated at 37 °C for 1, 2, and 4 h, respectively. The cells were washed three times with ice-cold PBS to determine the total uptake of ^177Lu-PSMA-617. The internalized fraction of ^177Lu-PSMA-617 was determined in cells which were washed with ice-cold PBS, then incubated for 10 min with acidic stripping buffer (50 mM glycine, pH 2.8) followed by an additional washing step with ice-cold PBS. Cell samples were lysed by the addition of NaOH (1 N, 1 mL) to each well. The samples of the cell suspensions were measured in a γ-counter (PerkinElmer, Waltham, MA, USA).

Question: With O=C([O-])CN1CCN(CC(=O)[O-])CCN(CC(=O)NCC2CCC(C(=O)N[C@@H](Cc3ccc4ccccc4c3)C(=O)NCCCC[C@H](NC(=O)N[C@@H](CCC(=O)O)C(=O)O)C(=O)O)CC2)CCN(CC(=O)[O-])CC1.[177Lu+3] (some centres unmarked) [^177Lu-PSMA-617] as the compound, how does the tumor-to-blood ratio ([1]; 1 h post-injection) read?
Answer: The tumor-to-blood ratio was 69.5.

Question: What about the tumor-to-kidney ratio ([1]; 1 h post-injection) of the same compound?
Answer: Its tumor-to-kidney ratio is 0.3.

Question: What about the tumor-to-muscle ratio ([1]; 1 h post-injection) of the same compound?
Answer: Its tumor-to-muscle ratio is 60.2.

Question: And the uptake in kidneys ([1]; 1 h post-injection, i.v., ~37 MBq)?
Answer: Its uptake in kidneys is 43.83 ± 3.41 %IA/g.

Question: What about the “uptake in LNCaP tumors” value ([1]; 4 h post-injection, i.v., ~37 MBq) of the same compound?
Answer: The value was 23.31 ± 0.94 %IA/g.

Question: What about the tumor-to-blood ratio ([1]; 24 h post-injection (maximum)) of the same compound?
Answer: The tumor-to-blood ratio was 434.4.

Question: What about the tumor-to-muscle ratio ([1]; 24 h post-injection (peak)) of the same compound?
Answer: Its tumor-to-muscle ratio is 857.4.

Question: What about the “uptake in LNCaP tumors” value ([1]; 24 h post-injection, i.v., ~37 MBq) of the same compound?
Answer: Its value is 12.88 ± 0.55 %IA/g.

Question: What about the tumor-to-kidney ratio ([1]; 48 h post-injection (maximum)) of the same compound?
Answer: Its tumor-to-kidney ratio is 26.3.

Question: And the “uptake in liver, lungs and spleen” value ([1]; i.v., ~37 MBq)?
Answer: Its value is “low uptake”.

Question: What about the urinary clearance ([1]; within 24 h) of the same compound?
Answer: The urinary clearance was greater than 90%.

Question: What about the free activity ([2]; human serum, 4 °C, after 2 h) of the same compound?
Answer: The free activity was 1.2%.

Question: What about the free activity ([2]; human serum, 25 °C, after 2 h) of the same compound?
Answer: Its free activity is “less than 1.1%”.

Question: What about the free activity ([2]; human serum, after 48 h, at 4, 25 and 37 °C) of the same compound?
Answer: Its free activity is “no detectable free activity”.

Question: What about the “free 177Lu” value ([2]; human serum, after 72 h, 4 °C) of the same compound?
Answer: The value was “less than 5%”.

Question: What about the “free 177Lu” value ([2]; human serum, after 72 h, 25 °C) of the same compound?
Answer: The value was less than 4%.

Question: What about the “release of free activity” value ([2]; human serum, up to 72 h at 37 °C) of the same compound?
Answer: Its value is “without any release of free activity”.

Question: What about the “free 177Lu” value ([2]; over a 72 h observation period, 37 °C) of the same compound?
Answer: Its value is “less than 5%”.

Question: What about the internalization [3] of the same compound?
Answer: Its internalization is less than 0.1 % IA/10^6 cells.

Question: What about the surface binding [3] of the same compound?
Answer: Its surface binding is no more than 1.7 % IA/10^6 cells.
